Assay results reported in publication PMC5291322, “Development of Cell‐Permeable, Non‐Helical Constrained Peptides to Target a Key Protein–Protein Interaction in Ovarian Cancer” (Angewandte Chemie (International Ed. in English), 2016).
Non-standard residues stand in square brackets, D forms with d. Residues, ends and D or L forms follow the SMILES beside them. *: point of attachment. 5TAMRA = CN(C)c1ccc2c(c1)Oc1cc(N(C)C)ccc1C21OC(=O)c2cc(C(=O)*)ccc21; Dap(N3) = [N-]=[N+]=NC[C@H](N)C(=O)O; Aha = [N-]=[N+]=NCC[C@H](N)C(=O)O; Ahx = NCCCCCC(=O)O

What was measured:
mImportin α1 ΔIBB = target: T1, mImportin α1 ΔIBB (Mus musculus, UniProt P52293); test: Direct fluorescence polarisation (FP) binding assay; details: 60 nM TAMRA-labelled peptide, 15-point 2.0-fold serial dilutions of mImportin α1 ΔIBB, 20 mM HEPES pH 8, 200 mM NaCl, 15 min at room temperature, ex 540/em 590 nm, one-site model, triplicates, read-out: Kd, direct FP assay binding affinity
T1 construct: made in house; host or cells: E. coli BL21 (DE3) CodonPlus-RIL
Experimental: The unconstrained peptides Pep1 and Pep2, as well as four constrained peptides, were synthesized. Their binding affinities for mImportin α1 ΔIBB were evaluated in fluorescence polarization assays (Figure 5 C). […]
Direct Fluorescence Polarisation Assay
Dissociation constants (Kd) for the interaction of TAMRA-5-labelled stapled peptides with mImportin α1 ΔIBB were determined by direct fluorescence polarisation (FP) measurement. TAMRA-5 belongs to the family of rhodamine dyes and has been used extensively for the study of PPIs and DNA-protein interactions by FP assays.[31-32] The mImportin α1 ΔIBB isoform was used since it is well characterised and has been used previously.[33] A one-site binding model was assumed with mImportin α1. mImportin α1 ΔIBB protein was purified in FP buffer (20 mM HEPES (pH 8), 200 mM NaCl) and 1 mM stock solutions of peptides were made up in FP buffer with 3 % v/v DMSO. Accurate mImportin α1 ΔIBB and stapled peptide concentrations were determined by amino acid analysis (PNAC facilities, Department of Biochemistry, University of Cambridge). 15-point dose-response curves were constructed using 2.0-fold serial dilutions of mImportin α1 ΔIBB in a mixture with a final concentration of 60 nM TAMRA-labelled peptide. 20 μL reaction volumes were pipetted into […] black polystyrene assay plates (Corning 384 Well Low Flange Black Flat

JHOC9 cells = test: Cell permeability assay, live-cell confocal fluorescence microscopy; format: cell-based; details: 10 μM TAMRA-labelled peptide in medium, 2 h incubation, Hoechst 33342 in the final 30 min, PBS wash, TAMRA fluorescence read-out, qualitative
Text: Live‐cell fluorescence microscopy studies were undertaken to assess the cell permeability of the synthesized TAMRA‐labelled linear and constrained peptides (Figure 7).
Figure 7 Cell‐permeability studies for the linear and constrained peptides using JHOC9 cells. Images were taken on a Leica tandem confocal microscope using a 40 X objective.
HEK293T cells were cultivated in Dulbecco’s Modified Eagle medium (DMEM) (1X) supplemented with 5 % foetal bovine serum (FBS) (Invitrogen) and 0.5 % penicillin/streptomycin (P/S). CCC cell lines PEO1, JHOC5, JHOC7, JHOC9, OVISE, SKOV3 and Normal Ovarian Surface Epithelial (IOSE) cells were grown in RPMI 1640 medium (1X) supplemented with 10 % FBS and 1 % P/S. All cell lines were maintained at 37 °C in 5 % CO2 and were mycoplasma tested on a regular basis (Biorepository Core, CRUK CI, Cambridge). Cell counts were conducted using the Vi-CELL Cell Viability Analyzer. […]
Cell permeability assay and confocal microscopy
Cells were grown in chambered coverslips (μ–Slide 8 Well ibiTreat, Ibidi) for live-cell imaging. When the desired degree of confluency was reached, the medium was replaced with 10 μM solutions of constrained peptides in medium. For live-cell imaging, cells were incubated with the constrained peptide solutions for 2 h and during the final 30 min, Hoechst stain 33342 (1 μM, Thermo Fisher Scientific) was added. Cells were washed with PBS before live-cell imaging. Fresh medium was added and cells were imaged live using a Leica Tandem confocal microscope. Images were generated as a maximum intensity projection of five z-stacked […]
Aldrich, Mission RNAi, TRC2-pLKO-puro Vector) were used. All plasmids were confirmed by restriction digest and agarose gel electrophoresis.
For each transfection sample 16 μg transfer vector, 10.4 μg pMDL/pRRE, 4 μg pRSV-Rev and 5.6 μg pVSV-G were used. Lentiviruses were produced in the HEK293T packaging cell line. The day before transfection, 16 x 10^6 HEK293T cells were plated in […] (Corning) using Opti-MEM reduced-serum medium (30 mL, 1 X, Invitrogen) so that cells were 90–95 % confluent on the day of transfection. After 24 h the medium was removed and replaced with DMEM growth medium (16 mL, Invitrogen) containing serum. For each transfection sample DNA-Lipofectamine complexes were prepared as follows: In a sterile 15 mL tube, 16 μg transfer vector, 10.4 μg pMDL/pRRE, 4 μg pRSV-REV and 5.6 μg pVSV-G were diluted in Opti-MEM medium (5 mL). In a separate sterile 15 mL tube, Lipofectamine 2000 (115 μL, Life Technologies) was diluted in Opti-MEM medium (5 mL). Both solutions were incubated for 5 min at room temperature and then combined.
Incubation for 20 min at room temperature allowed DNA-Lipofectamine complexes to form, which were then added dropwise to each plate of HEK293T cells. […]

| Structure (SMILES) | Kd (mImportin α1 ΔIBB) [µM] | cell permeability (JHOC9 cells) |
| --- | --- | --- |
| CSCC[C@@H]1NC(=O)[C@H](CCCCN)NC(=O)[C@H](CCCCN)NC(=O)[C@@H](NC(=O)[C@@H](NC(=O)CCCCCNC(=O)c2ccc3c(c2)C(=O)OC32c3ccc(N(C)C)cc3Oc3cc(N(C)C)ccc32)[C@@H](C)O)CCn2cc(nn2)CNC(=O)NCc2cn(nn2)CC[C@@H](C(=O)N[C@@H](CCCNC(=N)N)C(N)=O)NC(=O)[C@H](CCCNC(=N)N)NC(=O)[C@H](CCCNC(=N)N)NC1=O [Pep2A] | 4.54 | retained their cell permeability |
| CSCC[C@H](NC(=O)[C@H](CCCCN)NC(=O)[C@H](CCCCN)NC(=O)[C@H](CN=[N+]=[N-])NC(=O)[C@@H](NC(=O)CCCCCNC(=O)c1ccc2c(c1)C(=O)OC21c2ccc(N(C)C)cc2Oc2cc(N(C)C)ccc21)[C@@H](C)O)C(=O)N[C@@H](CCCNC(=N)N)C(=O)N[C@@H](CCCNC(=N)N)C(=O)N[C@@H](CN=[N+]=[N-])C(=O)N[C@@H](CCCNC(=N)N)C(N)=O [Pep1] ({5TAMRA-Ahx}-T[Dap(N3)]KKMRR[Dap(N3)]R-NH2) | 2.06 ± 0.07 | good cell permeability |
| CSCC[C@@H]1NC(=O)[C@H](CCCCN)NC(=O)[C@H](CCCCN)NC(=O)[C@@H](NC(=O)[C@@H](NC(=O)CCCCCNC(=O)c2ccc3c(c2)C(=O)OC32c3ccc(N(C)C)cc3Oc3cc(N(C)C)ccc32)[C@@H](C)O)Cn2cc(nn2)CCCNC(=O)NCCCc2cn(nn2)C[C@@H](C(=O)N[C@@H](CCCNC(=N)N)C(N)=O)NC(=O)[C@H](CCCNC(=N)N)NC(=O)[C@H](CCCNC(=N)N)NC1=O [Pep1C] | 55.9 ± 2.43 | – |
| CSCC[C@@H]1NC(=O)[C@H](CCCCN)NC(=O)[C@H](CCCCN)NC(=O)[C@@H](NC(=O)[C@@H](NC(=O)CCCCCNC(=O)c2ccc3c(c2)C(=O)OC32c3ccc(N(C)C)cc3Oc3cc(N(C)C)ccc32)[C@@H](C)O)Cn2cc(nn2)CCNC(=O)NCCc2cn(nn2)C[C@@H](C(=O)N[C@@H](CCCNC(=N)N)C(N)=O)NC(=O)[C@H](CCCNC(=N)N)NC(=O)[C@H](CCCNC(=N)N)NC1=O [Pep1B] | 48.2 ± 4.88 | retained their cell permeability |
| CSCC[C@@H]1NC(=O)[C@H](CCCCN)NC(=O)[C@H](CCCCN)NC(=O)[C@@H](NC(=O)[C@@H](NC(=O)CCCCCNC(=O)c2ccc3c(c2)C(=O)OC32c3ccc(N(C)C)cc3Oc3cc(N(C)C)ccc32)[C@@H](C)O)Cn2cc(nn2)CNC(=O)NCc2cn(nn2)C[C@@H](C(=O)N[C@@H](CCCNC(=N)N)C(N)=O)NC(=O)[C@H](CCCNC(=N)N)NC(=O)[C@H](CCCNC(=N)N)NC1=O [Pep1A] | 95.9 ± 27.3 | – |
| CN(C)c1ccc2c(-c3ccc(C(=O)O)cc3C(=O)[O-])c3ccc(N(C)C)cc3[o+]c2c1 [TAMRA-5, 5-CARBOXYTETRAMETHYLRHODAMINE, reference compound] | ~122 | – |
| CSCC[C@H](NC(=O)[C@H](CCCCN)NC(=O)[C@H](CCCCN)NC(=O)[C@H](CCN=[N+]=[N-])NC(=O)[C@@H](NC(=O)CCCCCNC(=O)c1ccc2c(c1)C(=O)OC21c2ccc(N(C)C)cc2Oc2cc(N(C)C)ccc21)[C@@H](C)O)C(=O)N[C@@H](CCCNC(=N)N)C(=O)N[C@@H](CCCNC(=N)N)C(=O)N[C@@H](CCN=[N+]=[N-])C(=O)N[C@@H](CCCNC(=N)N)C(N)=O [Pep2] ({5TAMRA-Ahx}-T[Aha]KKMRR[Aha]R-NH2) | 6.84 ± 0.26 | good cell permeability |
